Experimental data reported in US11834401B2, “Treating and preventing diseases by modulating cell mechanics” (THE JOHNS HOPKINS UNIVERSITY, priority 2013, dated 2023).

Experiments:
[1] = tested on: NLS-tdTomato expressing Dictyostelium cells; conditions: for CIMPAQ hit category, kinase inhibitor collection / CIMPAQ hit category, ion channel collection: BIOMOL pilot screen; for CIMPAQ hit category, kinase inhibitor collection: 84 protein kinase inhibitors; for CIMPAQ hit category, ion channel collection: 70 ion channel inhibitors
Protocol: NLS-tdTomato expressing Dictyostelium cells were challenged with […] compounds from the ChemBridge Divert-SET library and imaged over three days. Raw data was segmented by CIMPAQ, a designed analytical platform, which rank ordered hits based on their cytokinesis or mitotic inhibitory activity, or lethality. Hits were confirmed through a dose-dependent secondary screening.
Ax3::NLS-tdTomato cells were plated on 384-well COP plates with a MicroFloSelect microplate dispenser (BioTek, Winooski, Vt.) at volumes of 80 μl with a cell concentration of 1000 cells/ml for the 24- and 48-hr time points and at the same volume with a cell concentration of 220 cells/ml for the 72-hr time point. Each plate contained four rows of untreated cells with 0.2% DMSO. For the remaining wells, […] of each small molecule maintained at the Johns Hopkins ChemCORE facility, was added, with a final DMSO concentration of 0.2%. Almost half of the ChemBridge Divert-SET library, which is a 50,000 compound chemical diversity library, was screened over a three-day period on a Becton Dickinson Pathway 855 Bioimager System using a 20× objective (NA 0.75). Each image consisted of a montage of four images collected around the center of the well, resulting in a total size of 1344×1024 pixels per image.
Secondary chemical screening was carried out in quadruplicate, with identical culturing conditions as to the primary screen. 14 mM stocks of each compounds dissolved in 100% DMSO were diluted to the following final concentrations: […], 3.5 nM, 35 nM, 350 nM, 3.5 μM, and 35 μM.
Raw image files from both the primary and secondary screening were processed through CIMPAQ (FIGS. 9E and 9F). The single wavelength fluorescence images were converted from 16-bit format to 8-bit format. The MATLAB Image Processing Toolbox was utilized to segment the images in order to identify the nuclei and cytoplasm. The number of nuclei within each segmented cell was quantified to produce a histogram of nuclei per cell for each image (FIG. 9G). All segmented cells that were coincident with the image edge were disregarded.
Image analysis using CIMPAQ: From the histogram of nuclei per cell count, the ratio of the number of multinucleate cells to the number of mononucleate cells and the ratio of the number of binucleate cells to the number of mononucleate cells were computed. Multinucleate cells are defined as cells that contain >2 nuclei. The distribution of both ratios across multiple wells were simultaneously visualized using a scatter plot, with the ratio of multinucleate cells to mononucleate cells plotted on the x-axis and the ratio of binucleate cells to mononucleate cells plotted on the y-axis (FIGS. 9H and 9I). Other information such as the average number of nuclei per cell, the mean nuclear area, and the normalized histogram with respect to total cell number were also computed.
Hit identification using CIMPAQ: Compounds that generate an increase in the number of multinucleate (>2 nuclei/cell) cells are considered cytokinesis inhibitors. Because nearly all cultured cells, including Dictyostelium, have a low background (typically <5% for WT) of non-mononucleate cells, CIMPAQ spreads the data for each sample by determining the ratio (bi:mono) of binucleate (2 nuclei/cell) to mononucleate cells and the ratio (multi:mono) of multinucleate (>2 nuclei/cell) to mononucleate cells. These two ratios then define a set of Cartesian coordinates, describing the effect of each compound on a given cell-line. The coordinates for each compound are plotted on a two-dimensional graph. CIMPAQ fits the control data to a two-dimensional Gaussian distribution (FIG. 9H) and determines the contour lines for two standard deviations (2SD), 3SD, etc. from the control mean (FIG. 9I).
Hit compounds are rank-ordered based on how many SDs away they are from the untreated wells.

[2] = biological target: EGF receptor tyrosine kinase (Homo sapiens, UniProt P00533); conditions: cited from earlier work
EGF receptor tyrosine kinase, sequence (P00533 25-1210): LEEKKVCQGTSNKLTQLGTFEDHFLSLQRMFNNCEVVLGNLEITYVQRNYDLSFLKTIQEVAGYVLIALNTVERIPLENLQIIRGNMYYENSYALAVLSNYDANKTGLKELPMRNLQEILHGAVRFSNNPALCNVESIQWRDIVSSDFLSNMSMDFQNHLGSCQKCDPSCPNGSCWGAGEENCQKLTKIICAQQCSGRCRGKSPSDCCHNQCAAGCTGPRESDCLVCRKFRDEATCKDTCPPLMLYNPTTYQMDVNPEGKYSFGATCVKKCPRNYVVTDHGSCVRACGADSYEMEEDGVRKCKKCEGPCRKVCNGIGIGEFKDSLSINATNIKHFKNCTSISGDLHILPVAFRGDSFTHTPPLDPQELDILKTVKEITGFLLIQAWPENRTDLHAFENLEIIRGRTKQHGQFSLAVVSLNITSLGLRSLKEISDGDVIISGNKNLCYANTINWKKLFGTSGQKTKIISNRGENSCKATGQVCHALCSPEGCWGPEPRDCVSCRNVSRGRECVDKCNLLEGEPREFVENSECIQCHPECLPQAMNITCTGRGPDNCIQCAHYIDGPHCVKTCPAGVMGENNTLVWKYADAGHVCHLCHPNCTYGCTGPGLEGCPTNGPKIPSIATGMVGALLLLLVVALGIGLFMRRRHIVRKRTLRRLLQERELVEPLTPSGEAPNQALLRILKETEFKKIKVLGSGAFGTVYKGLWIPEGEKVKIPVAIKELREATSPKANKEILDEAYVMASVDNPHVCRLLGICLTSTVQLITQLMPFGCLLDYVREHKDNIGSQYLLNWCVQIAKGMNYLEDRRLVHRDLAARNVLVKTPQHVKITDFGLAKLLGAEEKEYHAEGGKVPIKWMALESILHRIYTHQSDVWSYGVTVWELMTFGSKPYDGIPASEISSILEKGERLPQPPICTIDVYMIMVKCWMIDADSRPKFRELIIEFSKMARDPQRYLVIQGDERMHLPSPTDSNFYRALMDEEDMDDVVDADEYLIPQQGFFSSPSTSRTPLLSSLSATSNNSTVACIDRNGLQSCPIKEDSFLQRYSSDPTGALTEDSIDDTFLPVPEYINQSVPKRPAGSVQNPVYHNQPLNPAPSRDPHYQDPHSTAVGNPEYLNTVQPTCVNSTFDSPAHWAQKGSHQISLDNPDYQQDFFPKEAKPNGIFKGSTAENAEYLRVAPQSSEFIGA

[3] = Degradation/stability of carbamate-7 in solvent (TLC, HPLC); type: physicochemical; conditions: standing in methanol
Protocol: Upon standing in methanol, the product obtained above degraded within 2.5 hr, as determined by TLC analysis. Degradation appeared more rapid in DMSO, the solvent used to generate stock solutions for biological evaluation. Thus, carbamate-7 obtained either by chemical synthesis or commercially from ChemBridge was dissolved in DMSO (1 mg/mL), and a time course to study its degradation was initiated immediately upon solvation. To stop the degradation reaction such that the product distribution could be captured at early time points, aliquots (40 μL) were rapidly frozen into Eppendorf tubes incubating on dry ice. HPLC analysis on a Beckman Gold Nouveau HPLC System was performed on each sample immediately upon thawing. Carbamate-7 (5180622) degradation products were eluted at 3 mL/min from a Grace Alltima C18 column (length=53 mm, ID=7 mm, particle size=3 μM) over a linear gradient (5:95 acetonitrile/100 mM NH4OAc (pH 6.8) to 100% 100 mM NH4OAc (pH 6.8) over 15 min).
Comparison of the urea product to authentic N,N′-Bis(3,4-dichlorophenyl) urea was performed using a linear gradient (5:95 acetonitrile/100 mM NH4OAc (pH 6.8) to 100% 100 mM NH4OAc (pH 6.8) over 5 min). […] Confirmation of the urea was further confirmed via characteristic fragmentation patterns determined using product ion (MS-MS) analysis monitoring in negative ion mode (FIG. 11C).

[4] = tested on: Dictyostelium cells; assay: Micropipette aspiration cortical tension, Dictyostelium; type: cell-based, Dictyostelium discoideum; conditions: acute treatment; 700 μM printed
Protocol: (§1) Micropipette aspiration was used for cortical tension and creep response measurements. Confocal imaging was performed on a Zeiss 510 Meta with a 63× (numerical aperture [NA] 1.4) objective (Carl Zeiss, Jena, Germany). Epifluorescence and TIRF imaging was performed in a 22° C. temperature controlled room with an Olympus IX81 microscope using a 40× (NA 1.3) or 60× (NA 1.49) objective and a 1.4× optovar (Olympus, Center Valley, Pa.), as previously described. Image analysis was performed with ImageJ (rsb.info.nih.gov/ij).
The instrumental and experimental setups have been previously described (Effler J C, et al., 2006; Kee Y-S, et al., 2013). Micropipette aspiration assays were all carried out in growth media with 0.1% DMSO. For cortical tension measurements of Dictyostelium cells, pressure was applied to the cell cortex with a micropipette (2-3 m radius, Rp) to the equilibrium pressure (ΔP) where the length of the cell inside the pipette (Lp) was equal to Rp. The effective cortical tension (Teff) was calculated by applying the Young-Laplace equation: ΔP=2Teff(1/Rp-1/Rc), where Rc is the radius of the cell and ΔP is the equilibrium pressure when Lp=Rp (Derganc J, et al., 2000; Octtaviani E, et al., 2006). For creep tests on mammalian strains, a constant aspiration stress was applied over 60 s. The micropipette radius was 3.5-4.5 m. For quantification, the Lp/Rp ratio values was measured every two seconds and plotted as a function of time. A10.7 and HEK293 cells could only be aspirated at a low pressure range (0.15 nN/μm^2), while HPDE, ASPC-1, and HL-60 cells could be aspirated at higher pressure ranges (0.25 nN/μm^2) because they were stiffer.

[5] = biological target: T1, myosin II (Dictyostelium discoideum, UniProt P08799); assay: Myosin II cortical localization by SIM, TIRF and confocal imaging; type: cell-based; conditions: 500 nM time course
T1 construct: expressed in transfected cells; host or cells: Dictyostelium discoideum myoII null cells rescued with GFP-myosin II
T1 sequence (P08799 whole entry): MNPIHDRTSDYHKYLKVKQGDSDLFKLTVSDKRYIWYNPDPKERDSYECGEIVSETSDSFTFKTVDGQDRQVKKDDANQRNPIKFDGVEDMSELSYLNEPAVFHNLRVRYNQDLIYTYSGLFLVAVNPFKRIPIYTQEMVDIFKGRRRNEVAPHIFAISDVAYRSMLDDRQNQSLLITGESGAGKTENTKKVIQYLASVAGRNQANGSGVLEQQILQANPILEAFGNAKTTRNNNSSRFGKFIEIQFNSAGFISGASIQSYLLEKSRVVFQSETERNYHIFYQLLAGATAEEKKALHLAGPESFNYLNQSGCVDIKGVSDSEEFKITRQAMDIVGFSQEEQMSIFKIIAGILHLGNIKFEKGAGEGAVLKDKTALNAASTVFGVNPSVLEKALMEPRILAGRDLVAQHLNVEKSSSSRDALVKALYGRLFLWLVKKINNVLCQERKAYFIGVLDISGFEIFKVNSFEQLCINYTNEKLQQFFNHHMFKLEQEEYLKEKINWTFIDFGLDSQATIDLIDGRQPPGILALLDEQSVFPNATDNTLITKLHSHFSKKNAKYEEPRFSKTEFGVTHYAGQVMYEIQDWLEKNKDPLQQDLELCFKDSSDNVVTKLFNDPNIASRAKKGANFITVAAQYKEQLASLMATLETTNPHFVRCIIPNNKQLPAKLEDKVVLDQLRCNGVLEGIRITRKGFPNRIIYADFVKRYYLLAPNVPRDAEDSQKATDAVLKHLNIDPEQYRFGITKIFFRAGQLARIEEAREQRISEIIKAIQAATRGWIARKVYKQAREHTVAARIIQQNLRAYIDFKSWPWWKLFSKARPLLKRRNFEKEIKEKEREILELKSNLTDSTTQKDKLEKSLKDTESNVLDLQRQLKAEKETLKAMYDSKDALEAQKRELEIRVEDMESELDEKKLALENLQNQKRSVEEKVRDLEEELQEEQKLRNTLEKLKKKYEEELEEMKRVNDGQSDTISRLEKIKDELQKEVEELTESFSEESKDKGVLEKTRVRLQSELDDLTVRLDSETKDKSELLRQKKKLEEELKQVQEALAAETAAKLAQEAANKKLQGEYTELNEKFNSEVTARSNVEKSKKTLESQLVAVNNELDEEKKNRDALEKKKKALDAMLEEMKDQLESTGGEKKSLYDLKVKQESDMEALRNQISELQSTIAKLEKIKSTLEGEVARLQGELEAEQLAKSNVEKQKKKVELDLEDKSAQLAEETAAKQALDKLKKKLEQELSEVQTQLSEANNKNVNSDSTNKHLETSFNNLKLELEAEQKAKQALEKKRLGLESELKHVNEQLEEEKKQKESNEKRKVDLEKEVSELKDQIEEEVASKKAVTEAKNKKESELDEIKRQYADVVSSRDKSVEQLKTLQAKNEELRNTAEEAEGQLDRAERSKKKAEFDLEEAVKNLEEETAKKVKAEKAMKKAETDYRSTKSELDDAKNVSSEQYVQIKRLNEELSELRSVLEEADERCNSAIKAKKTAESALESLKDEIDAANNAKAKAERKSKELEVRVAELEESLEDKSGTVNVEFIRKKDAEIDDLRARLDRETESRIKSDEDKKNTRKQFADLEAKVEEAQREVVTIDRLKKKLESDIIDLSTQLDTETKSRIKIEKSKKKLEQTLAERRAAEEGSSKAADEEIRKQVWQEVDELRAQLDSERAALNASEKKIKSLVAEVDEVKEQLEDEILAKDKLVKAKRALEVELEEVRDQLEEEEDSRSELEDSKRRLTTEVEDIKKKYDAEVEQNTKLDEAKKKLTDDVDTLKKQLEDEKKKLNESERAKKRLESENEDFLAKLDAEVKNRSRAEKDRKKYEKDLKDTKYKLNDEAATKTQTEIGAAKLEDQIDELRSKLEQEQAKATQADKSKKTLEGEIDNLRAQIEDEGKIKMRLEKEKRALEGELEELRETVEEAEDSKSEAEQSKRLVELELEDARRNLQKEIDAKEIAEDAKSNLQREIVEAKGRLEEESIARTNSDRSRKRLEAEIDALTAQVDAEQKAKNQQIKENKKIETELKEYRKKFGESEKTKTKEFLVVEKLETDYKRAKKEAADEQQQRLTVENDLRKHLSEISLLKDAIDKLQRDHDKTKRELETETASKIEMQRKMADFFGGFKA
Protocol: as §1
Imaging conditions during primary screen are described above. All other image analysis was performed as previously described (Kee Y S, et al., 2012). Cells were transferred from Petri dishes (with 0.1% DMSO incubation in growth media of 4 hrs) to imaging chambers and allowed to adhere for 20 min in growth media with 0.1% DMSO. After the cells adhered, the growth media was replaced with 2-(N-morpholino)ethanesulfonic acid (MES) starvation buffer (50 mM MES, pH 6.8, 2 mM MgCl2, 0.2 mM CaCl2) with 0.1% DMS. Confocal imaging was performed on aZeiss 510 Meta with a 63× (numerical aperture [NA] 1.4) objective (Carl Zeiss, Jena, Germany). Epifluorescence and TIR imaging was performed in a 22° C. temperature controlled room with an Olympus IX81 microscope using a 40× (NA 1.3) or 60× (NA […]) objective and a 1.4× optovar (Olympus, Center Valley, Pa.), as previously described. Image analysis was performed with ImageJ (rsb.info.nih.gov/ij). Many data sets were independently analyzed by multiple investigators.

## CCCCCCCCCCCCCCCC(=O)OC(CC(=O)O)C[N+](C)(C)C.[Cl-] (racemic) [Palmitoyl-DL-carnitine Cl]
[1]
  CIMPAQ hit category, kinase inhibitor collection: Lethal at 10 μM

## O=C(O)c1cc(NCc2cc(O)ccc2O)ccc1O [2-Hydroxy-5-(2,5-dihydroxybenzylamino) benzoic acid]
[1]
  CIMPAQ hit category, kinase inhibitor collection: Lethal at 10 μM

## C/C(CCc1ccccc1)=N\Nc1ccc([N+](=O)[O-])cc1 [4-phenyl-2-butanone (4-nitrophenyl) hydrazone]
[1]; Dictyostelium Drug Discovery Platform (3DP)
  cell division: inhibit cell division

## N#CC(=Cc1ccc2[nH]ccc2c1)C(N)=C(C#N)C#N [AG-370]
[1]
  CIMPAQ hit category, kinase inhibitor collection: Lethal at 5 μM

## CNc1ccc2oc(C[C@H]3O[C@@]4(CC[C@H]3C)O[C@H]([C@H](C)C(=O)c3ccc[nH]3)[C@H](C)C[C@H]4C)nc2c1C(=O)O [Antibiotic A-23187]
[1]
  CIMPAQ hit category, ion channel collection: Lethal at 5 μM

## CC(C)COCC(CN(Cc1ccccc1)c1ccccc1)N1CCCC1 (stereo not drawn) [Bepridil]
[1]
  CIMPAQ hit category, ion channel collection: Lethal at 5 μM

## COC(=O)/C=C/c1cc(O)ccc1O [Erbstatin analog]
[2]
  known IC50: inhibitor; known IC50 (0.5 μg/ml

## COc1cccc(-c2cc(=O)c3ccccc3o2)c1N [PD-98059]
[1]
  CIMPAQ hit category, kinase inhibitor collection: Lethal at 5 μM

## Cc1ccc(-c2nn(C(C)(C)C)c3ncnc(N)c23)cc1 [PP1]
[1]
  CIMPAQ hit category, kinase inhibitor collection: Lethal at 5 μM

## COc1ccc(CCCOC(Cn2ccnc2)c2ccc(OC)cc2)cc1 (stereo not drawn) [SKF-96365]
[1]
  CIMPAQ hit category, ion channel collection: Lethal at 5 μM

## CC(C)(C)c1cc(C=C(C#N)C#N)cc(C(C)(C)C)c1O [Tyrphostin 9]
[1]
  CIMPAQ hit category, kinase inhibitor collection: Lethal at 5 μM

## CC(=O)c1ccc(OC(=O)Nc2ccc(Cl)c(Cl)c2)cc1 [carbamate-7, 4-acetylphenyl-(3,4-dichlorophenyl) carbamate]
[3]
  time to degradation: ≤ 2.5 h
[4]
  increase in cortical tension: 1.4 fold

## COC(=O)Nc1nc2ccc(C(=O)c3cccs3)cc2[nH]1 [nocodazole]
[1]
  identification as early mitotic inhibitor (average nuclear area greater than 28 pixels): reliably identified

## O=C(Nc1ccc(Cl)c(Cl)c1)Nc1ccc(Cl)c(Cl)c1 [urea, N,N′-bis(3,4-dichlorophenyl)urea]
[5]
  changes in myosin II cortical distribution (TIRF): Neither 3,4-DCA nor the urea result in changes in myosin II cortical distribution
